ChEMBL document CHEMBL1201862, “PubChem BioAssay data set” (2004)
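All cell lines were grown in 96-well plates and treated with compound for 48 hours. GI50 marks 50% less growth.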 Calls of active or inactive are those of the source. Cut-off read from the data, not from the text of the source: active = GI50 up to about 1.1 µM and inactive = higher.

Key:
Assay in all cases: inhibition of tumour cell growth, NCI panel, 48 h
786-0 = test system: 786-0
A498 = test system: A498
A549 = test system: A549
ACHN = test system: ACHN
BT-549 = test system: BT-549
CAKI-1 = test system: CAKI-1
CCRF-CEM = test system: CCRF-CEM
COLO 205 = test system: COLO 205
DU-145 = test system: DU-145
EKVX = test system: EKVX
HCT-116 = test system: HCT-116
HCT-15 = test system: HCT-15
HL-60 = test system: HL-60
HOP-92 = test system: HOP-92
HT-29 = test system: HT-29
Hs-578T = test system: Hs-578T
IGROV-1 = test system: IGROV-1
K562 = test system: K562
KM12 = test system: KM12
M14 = test system: M14
MDA-MB-231 = test system: MDA-MB-231
MDA-MB-435 = test system: MDA-MB-435
MDA-N = test system: MDA-N
MOLT-4 = test system: MOLT-4
Malme-3M = test system: Malme-3M
NCI-H23 = test system: NCI-H23
NCI-H460 = test system: NCI-H460
NCI-H522 = test system: NCI-H522
NCI/ADR-RES = test system: NCI/ADR-RES
OVCAR-4 = test system: OVCAR-4
OVCAR-5 = test system: OVCAR-5
OVCAR-8 = test system: OVCAR-8
PC-3 = test system: PC-3
RPMI-8226 = test system: RPMI-8226
RXF 393 = test system: RXF 393
SF-268 = test system: SF-268
SF-295 = test system: SF-295
SF-539 = test system: SF-539
SK-MEL-28 = test system: SK-MEL-28
SK-MEL-2 = test system: SK-MEL-2
SK-MEL-5 = test system: SK-MEL-5
SK-OV-3 = test system: SK-OV-3
SN12C = test system: SN12C
SNB-19 = test system: SNB-19
SNB-75 = test system: SNB-75
SR = test system: SR
SW-620 = test system: SW-620
T47D = test system: T47D
TK-10 = test system: TK-10
U-251 = test system: U-251
UACC-257 = test system: UACC-257
UACC-62 = test system: UACC-62
UO-31 = test system: UO-31

Compound: CCN(CC)/N=C\c1c2ccccc2cc2ccccc12
- GI50 (786-0): 44.2 µM (inactive)
- GI50 (A498): 41 µM (inactive)
- GI50 (A549): 41.6 µM (inactive)
- GI50 (ACHN): 96.8 µM (inactive)
- GI50 (BT-549): 84.7 µM (inactive)
- GI50 (CAKI-1): 33 µM (inactive)
- GI50 (CCRF-CEM): 31.3 µM (inactive)
- GI50 (COLO 205): 23.5 µM (inactive)
- GI50 (DU-145): 82 µM (inactive)
- GI50 (EKVX): 38.4 µM (inactive)
- GI50 (HCT-116): 31.8 µM (inactive)
- GI50 (HCT-15): 34.6 µM
- GI50 (HL-60): 31.7 µM (inactive)
- GI50 (HOP-92): 24.4 µM (inactive)
- GI50 (HT-29): 25 µM (inactive)
- GI50 (Hs-578T): 48 µM (inactive)
- GI50 (IGROV-1): 39.4 µM (inactive)
- GI50 (K562): 44.9 µM (inactive)
- GI50 (KM12): 30.8 µM (inactive)
- GI50 (M14): 22 µM (inactive)
- GI50 (MDA-MB-231): 24.9 µM (inactive)
- GI50 (MDA-MB-435): 34.7 µM (inactive)
- GI50 (MDA-N): 39 µM (inactive)
- GI50 (MOLT-4): 21 µM (inactive)
- GI50 (Malme-3M): 49.8 µM (inactive)
- GI50 (NCI-H23): 58.9 µM (inactive)
- GI50 (NCI-H460): 30.7 µM (inactive)
- GI50 (NCI-H522): 21 µM (inactive)
- GI50 (NCI/ADR-RES): 79.4 µM (inactive)
- GI50 (OVCAR-4): 54.3 µM (inactive)
- GI50 (OVCAR-5): 37.5 µM (inactive)
- GI50 (OVCAR-8): 61.8 µM (inactive)
- GI50 (PC-3): 41.1 µM (inactive)
- GI50 (RPMI-8226): 30.5 µM (inactive)
- GI50 (RXF 393): 17.7 µM (inactive)
- GI50 (SF-268): 72.8 µM (inactive)
- GI50 (SF-295): 39 µM (inactive)
- GI50 (SF-539): > 100 µM (inactive)
- GI50 (SK-MEL-28): 11.9 µM (inactive)
- GI50 (SK-MEL-2): 27.9 µM (inactive)
- GI50 (SK-MEL-5): 21.8 µM (inactive)
- GI50 (SK-OV-3): > 100 µM (inactive)
- GI50 (SN12C): 48.5 µM (inactive)
- GI50 (SNB-19): > 100 µM (inactive)
- GI50 (SNB-75): 18.3 µM (inactive)
- GI50 (SR): 26.6 µM (inactive)
- GI50 (SW-620): 29 µM (inactive)
- GI50 (T47D): 42.7 µM (inactive)
- GI50 (TK-10): 55 µM (inactive)
- GI50 (U-251): 24.5 µM (inactive)
- GI50 (UACC-257): 27.9 µM (inactive)
- GI50 (UACC-62): 53.6 µM (inactive)
- GI50 (UO-31): 48.8 µM (inactive)
